Drawing on patent publication US12344610B2, “APOL1 inhibitors and methods of use” (Maze Therapeutics, Inc., priority 2022, dated 2025), this text covers EC50 for 17 compounds.

A word on the EC50: it is the concentration needed to bring the measured effect to its halfway point.

Holding throughout (assay type): cell-based
The test system of experiment [1] is Trypanosoma brucei Lister 427 VSG221 with APOL1 G1 recombinant protein. Put plainly: APOL1 G1 trypanosome cell rescue assay (Example B5). Conditions: Trypanosoma brucei, 20 h, read-out: APOL1 G1 Trypanosome Rescue EC50, Trypanosoma brucei Lister 427 VSG221 with APOL1 G1 recombinant protein, 20 hours, CellTiter-Glo; geometric mean of at least 2 assay runs; † = single assay run. In outline: (§1)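 Viability read by CellTiter-Glo luminescence after 20 h co-incubation (37° C, 5% CO2) of 250 trypanosomes/well in modified HMI-9 with test compound (duplicate 11-point, 2-fold dilutions, 0.4% DMSO) and APOL1 protein, […]. Protein: mature residues 28-398, E. coli inclusion-body refolded, tag cleaved, in DDM.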
On the technique in general: In ATP-based viability assays light output follows the ATP content of the culture.

Experiment [2] has as its system Trypanosoma brucei Lister 427 VSG221 with APOL1 G2 recombinant protein. Put plainly: APOL1 G2 trypanosome cell rescue assay (Example B5). Conditions: Trypanosoma brucei, 20 h, read-out: APOL1 G2 Trypanosome Rescue EC50, Trypanosoma brucei Lister 427 VSG221 with APOL1 G2 recombinant protein, 20 hours, CellTiter-Glo; geometric mean of at least 2 assay runs; † = single assay run. In outline: as §1

Experiment [3] has as its system HEK293 clonal cell line overexpressing APOL1 G1. Put plainly: APOL1 G1 HEK293 cell rescue assay (Example B3). Conditions: Homo sapiens, HEK293, HEK293 clonal line overexpressing APOL1 G1; geometric mean of at least 2 runs; † = single run; ¥ = concentration at 50% rescue estimated (no sigmoidal curve). In outline:
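Rescue of cell death caused by APOL1 G1 overexpression was measured in a clonal HEK293 line. Compounds were tested in duplicate on one plate, and EC50s were geometric means across at least two runs on different days. Some values are estimated 50%-rescue concentrations where curve fitting failed.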

The subject of experiment [4] is Trypanosoma brucei Lister 427 VSG221 with APOL1 G0 recombinant protein. Put plainly: APOL1 G0 trypanosome cell rescue assay (Example B5). Conditions: Trypanosoma brucei, 20 h, read-out: APOL1 G0 Trypanosome Rescue EC50, Trypanosoma brucei Lister 427 VSG221 with APOL1 G0 recombinant protein, 20 hours, CellTiter-Glo; geometric mean of at least 2 assay runs; † = single assay run. In short, it runs like this: as §1

For `C[C@]1(O)C[C@@H](N2C(=O)Cc3cc(OCCN4CCC5(CC4)C(=O)Nc4ccc(C(F)F)cc45)cnc32)C1` [Compound 346, 5-(difluoromethyl)-1′-[2-({2-oxo-1-[(cis)-3-hydroxy-3-methylcyclobutyl]-1H,2H,3H-pyrrolo[2,3-b]pyridin-5-yl]oxy)ethyl]-1,2-dihydrospiro[indole-3,4′-piperidin]-2-one], the EC50 in experiment [1] is 116 nM; in experiment [2] it was 37.7 nM; in experiment [3], 83.7 nM; in experiment [4], 83.6 nM.

For `C[C@]1(O)C[C@@H](n2ccc3cc(OCCN4CCC5(CC4)C(=O)Nc4ccc(Cl)cc45)cnc32)C1` [Compound 349, 5-chloro-1′-[2-({1-[(cis)-3-hydroxy-3-methylcyclobutyl]-1H-pyrrolo[2,3-b]pyridin-5-yl}oxy)ethyl]-1,2-dihydrospiro[indole-3,4′-piperidin]-2-one], the 50% effective concentration (EC50) in experiment [1] is 89.8 nM; in experiment [2], 33.1 nM; in experiment [3] it was 73.5 nM; in experiment [4], 64.6 nM.

On to `C[C@]1(O)C[C@@H](n2cnc3cc(OCCN4CCC5(CC4)C(=O)Nc4ccc(Cl)cc45)cc(C(F)(F)F)c32)C1` [Compound 352, 5-chloro-1′-[2-({1-[(cis)-3-hydroxy-3-methylcyclobutyl]-7-(trifluoromethyl)-1H-1,3-benzodiazol-5-yl}oxy)ethyl]-1,2-dihydrospiro[indole-3,4′-piperidin]-2-one], for which the concentration for a half-maximal effect (EC50) is 18.8 nM in experiment [1], 8.22 nM in experiment [2], 9.95 nM in experiment [3] and 18.7 nM in experiment [4].

On to `C[C@]1(O)C[C@@H](N2C(=O)NCc3cc(OCCN4CCC5(CC4)C(=O)Nc4ccc(Cl)cc45)cnc32)C1` [Compound 356, 5-chloro-1′-[2-({2-oxo-1-[(cis)-3-hydroxy-3-methylcyclobutyl]-1H,2H,3H,4H-pyrido[2,3-d]pyrimidin-6-yl}oxy)ethyl]-1,2-dihydrospiro[indole-3,4′-piperidin]-2-one], for which the EC50 in experiment [1] is 113 nM; in experiment [2] it was 37.4 nM; in experiment [3], 162 nM; in experiment [4] it was 101 nM.

On to `CC(C)(O)c1ncc(OCCN2CCC3(CC2)C(=O)Nc2ccc(Cl)cc23)cc1C(F)(F)F` [Compound 371, 5-chloro-1′-(2-{[6-(2-hydroxypropan-2-yl)-5-(trifluoromethyl)pyridin-3-yl]oxy}ethyl)-1,2-dihydrospiro[indole-3,4′-piperidin]-2-one], for which the EC50 was 21.9 nM in experiment [1], 9.16 nM in experiment [2], 28.8 nM in experiment [3] and 18.8 nM in experiment [4].

Consider `CCC1(O)CN(c2ncc(OCCN3CCC4(CC3)C(=O)Nc3ccc(Cl)cc34)cn2)C1` [Compound 397, 5-chloro-1′-(2-{[2-(3-ethyl-3-hydroxyazetidin-1-yl)pyrinlidin-5-yl]oxy}ethyl)-1,2-dihydrospiro[indole-3,4′-piperidin]-2-one], for which the EC50 is 269 nM in experiment [1], 85.2 nM in experiment [2], 105 nM in experiment [3] and 226 nM in experiment [4].

On to `C[C@]1(O)C[C@@H](n2ccc3cc(OCCN4CCC5(CC4)C(=O)Nc4ccc(C#N)cc45)cnc32)C1` [Compound 410, 2-oxo-1′-[2-({1-[(cis)-3-hydroxy-3-methylcyclobutyl]-1H-pyrrolo[2,3-b]pyridin-5-yl}oxy)ethyl]-1,2-dihydrospiro[indole-3,4′-piperidine]-5-carbonitrile], for which the EC50 in experiment [1] is 269 nM; in experiment [2], 92.4 nM; in experiment [3], 93.3 nM; in experiment [4] it was 206 nM.

For the compound `[2H]C([2H])(Oc1cnc2c(c1)CCC(=O)N2[C@H]1C[C@@](C)(O)C1)C([2H])([2H])N1CCC2(CC1)C(=O)Nc1ccc(Cl)cc12` [Compound 426, 5-chloro-1′-[2-({7-oxo-8-[(cis)-3-hydroxy-3-methylcyclobutyl]-5,6,7,8-tetrahydro-1,8-naphthyridin-3-yl}oxy)(1,1,2,2-^2H4)ethyl]-1,2-dihydrospiro[indole-3,4′-piperidin]-2-one], the EC50 in experiment [1] was 88.8 nM; in experiment [2], 36.7 nM; in experiment [3] it was 80.3 nM; in experiment [4] it was 71 nM.

Consider `C[C@]1(O)C[C@@H](n2cc3cc(OCCN4CCC5(CC4)C(=O)Nc4ccc(Cl)cc45)cc(C(F)(F)F)c3n2)C1` [Compound 427, 5-chloro-1′-[2-({2-[(cis)-3-hydroxy-3-methylcyclobutyl]-7-(trifluoromethyl)-2H-indazol-5-yl}oxy)ethyl]-1,2-dihydrospiro[indole-3,4′-piperidin]-2-one], for which the EC50 in experiment [1] was 18.1 nM; in experiment [2], 6.62 nM; in experiment [3] it was 35.8 nM; in experiment [4], 15.6 nM.

For the compound `C[C@]1(O)C[C@@H](n2cc3cc(OCCN4CCC5(CC4)C(=O)Nc4ccc(C#N)cc45)cc(C(F)(F)F)c3n2)C1` [Compound 428, 2-oxo-1′-[2-({2-[(cis)-3-hydroxy-3-methylcyclobutyl]-7-(trifluoromethyl)-2H-indazol-5-yl}oxy)ethyl]-1,2-dihydrospiro[indole-3,4′-piperidine]-5-carbonitrile], the concentration giving a half-maximal response (EC50) was 71.9 nM in experiment [1], 32.3 nM in experiment [2], 89.6 nM in experiment [3] and 63.3 nM in experiment [4].

With `C[C@]1(O)C[C@@H](n2nnc3cc(OCCN4CCC5(CC4)C(=O)Nc4ccc(C#N)cc45)cc(C(F)(F)F)c32)C1` [Compound 435, 2-oxo-1′-[2-({1-[(cis)-3-hydroxy-3-methylcyclobutyl]-7-(trifluoromethyl)-1H-1,2,3-benzotriazol-5-yl}oxy)ethyl]-1,2-dihydrospiro[indole-3,4′-piperidine]-5-carbonitrile], the EC50 in experiment [1] is 27.2 nM; in experiment [2], 14.5 nM; in experiment [3], 38.4 nM; in experiment [4], 27.1 nM.

`C[C@]1(O)C[C@@H](n2cnc3cc(OCCN4CCC5(CC4)C(=O)Nc4ccc(Cl)cc45)cc(C#N)c32)C1` [Compound 439, 5-(2-{5-chloro-2-oxo-1,2-dihydrospiro[indole-3,4′-piperidin]-1′-yl}ethoxy)-1-[(cis)-3-hydroxy-3-methylcyclobutyl]-1H-1,3-benzodiazole-7-carbonitrile]: the concentration giving a half-maximal response (EC50) in experiment [1] is 51 nM; in experiment [2] it was 20.2 nM; in experiment [3] it was 45.5 nM; in experiment [4], 50.5 nM.

Take `C[C@]1(O)C[C@@H](n2nnc3cc(OCCN4CCC5(CC4)C(=O)Nc4ccc(Cl)cc45)cnc32)C1` [Compound 440, 5-chloro-1′-[2-({3-[(cis)-3-hydroxy-3-methylcyclobutyl]-3H-[1,2,3]triazolo[4,5-b]pyridin-6-yl}oxy)ethyl]-1,2-dihydrospiro[indole-3,4′-piperidin]-2-one]: the EC50 in experiment [1] was 205 nM; in experiment [2] it was 70.5 nM; in experiment [3] it was 139 nM; in experiment [4], 160 nM.

Take `CC1(O)CC2(CN(c3ncc(OCCN4CCC5(CC4)C(=O)Nc4ccc(Cl)cc45)cn3)C2)C1` [Compound 459, 5-chloro-1′-{2-[(2-{6-hydroxy-6-methyl-2-azaspiro[3.3]heptan-2-yl}pyrimidin-5-yl)oxy]ethyl}-1,2-dihydrospiro[indole-3,4′-piperidin]-2-one]: the EC50 is 133 nM in experiment [1], 49.8 nM in experiment [2], 95.5 nM in experiment [3] and 101 nM in experiment [4].

As for `C[C@]1(O)C[C@@H](N2C(=O)C3(CC3)c3cc(OCCN4CCC5(CC4)C(=O)Nc4ccc(Cl)cc45)cnc32)C1` [Compound 460, 5-chloro-1′-(2-{2′-oxo-1′-[(cis)-3-hydroxy-3-methylcyclobutyl]-1′,2′-dihydrospiro[cyclopropane-1,3′-pyrrolo[2,3-b]pyridin]-5′-yloxy}ethyl)-1,2-dihydrospiro[indole-3,4′-piperidin]-2-one], the EC50 was 118 nM in experiment [1], 53.7 nM in experiment [2], 97.7 nM in experiment [3] and 104 nM in experiment [4].

In the case of `[2H]C([2H])([2H])[C@]1(O)C[C@@H](N2C(=O)CCc3cc(OCCN4CCC5(CC4)C(=O)Nc4ccc(Cl)cc45)cnc32)C1` [Compound 461, 5-chloro-1′-[2-({7-oxo-8-[(cis)-3-hydroxy-3-(^2H3)methylcyclobutyl]-5,6,7,8-tetrahydro-1,8-naphthyridin-3-yl}oxy)ethyl]-1,2-dihydrospiro[indole-3,4′-piperidin]-2-one], the EC50 in experiment [1] is 75.5 nM; in experiment [2], 28.8 nM; in experiment [3], 80.9 nM; in experiment [4], 69.2 nM.

Take `C[C@]1(O)C[C@@H](n2c(=O)[nH]c3cc(OCCN4CCC5(CC4)C(=O)Nc4ccc(Cl)cc45)cc(C(F)(F)F)c32)C1` [Compound 468, 5-chloro-1′-[2-({2-oxo-1-[(cis)-3-hydroxy-3-methylcyclobutyl]-7-(trifluoromethyl)-2,3-dihydro-1H-1,3-benzodiazol-5-yl}oxy)ethyl]-1,2-dihydrospiro[indole-3,4′-piperidin]-2-one]: the EC50 is 5.59 nM in experiment [1], 2.4 nM in experiment [2], 14.5 nM in experiment [3] and 3.72 nM in experiment [4].
